Molecular target: GPR55 (Homo sapiens, UniProt Q9Y2T6)
Assay: saturable fluorescent ligand uptake in live cells, reduced by GPR55 siRNA
Format: cell-based

Sequence of GPR55 (Q9Y2T6 whole entry): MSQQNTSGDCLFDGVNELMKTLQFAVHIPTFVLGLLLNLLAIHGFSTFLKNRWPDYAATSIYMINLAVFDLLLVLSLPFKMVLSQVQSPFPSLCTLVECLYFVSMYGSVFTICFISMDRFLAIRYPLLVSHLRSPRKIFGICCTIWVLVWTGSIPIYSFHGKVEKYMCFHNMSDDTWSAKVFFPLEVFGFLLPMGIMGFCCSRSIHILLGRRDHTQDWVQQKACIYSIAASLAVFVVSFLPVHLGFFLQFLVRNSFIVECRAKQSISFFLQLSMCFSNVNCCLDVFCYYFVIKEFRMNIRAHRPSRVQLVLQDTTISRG

Tocrifluor 1117 [T1117] showed an EC50 of ~8 nM.
